In one data set the test system is C. krusei. Nature of the data set: MIC80 broth microdilution. As to conditions: Pichia kudriavzevii, 80% growth inhibition, RPMI-1640. The format is cell-based, Candida krusei. From the text:
(§1) Fluconazole, an ergosterol inhibitor, and the beta-1,3-glucan inhibitor micafungin served as controls (See Tables 1 and 2).
(§2) The minimum inhibitory concentrations resulting in 80% growth inhibition (MIC of multiple Candida species (Candida albicans, Candida tropicalis, Candida, guilliermondii, Candida glabrata, Candida lusitaniae, Candida parapsilois, Candida neoformans, Candida krusei, and Candida apicola) as well as Aspergillus fumigatus to a set of formula (II), (III), (IV), and (V) was determined in accordance with the guidelines in CLSI document M27-A2 (Clinical and Laboratory Standards Institute; Wayne, Pa.). The total volume of cells and drug was 100 μL per microtiter well, and each drug was diluted in RPMI to achieve final concentrations of 0.2-100 μg/ml. Uninoculated cultures were used as a reference standard. Stock inoculum suspensions were prepared from 24 hour cultures on YPD (yeast extract/peptone/dextrose) media at 30° C.
(§3) For MIC determinations, an inoculum of 1.0×10^3 cells of Candida and 2.0×10^3 cells of Aspergillus per well were used, and cells in diluted drugs were prepared in RPMI-1640 medium. MICs were determined both visually and spectrophotometrically at 24 hours and 48 h at 550 nm using a micro plate reader. The MIC80 endpoint was measured as the lowest drug concentration resulting in a reduction of growth of 80% or more compared with growth of the control.

The test system of a further data set is C. guilliermondii. Nature of the data set: MIC80 broth microdilution. The format is cell-based, Candida guilliermondii. Particulars: Meyerozyma guilliermondii, 80% growth inhibition, RPMI-1640.
From the text: as §1, §2, §3

Another data set deals with C. apicola. The data set is described as follows: MIC80 broth microdilution. Format: cell-based, Candida apicola. As to conditions: Starmerella apicola, 80% growth inhibition, RPMI-1640.
From the text: as §1, §2, §3

The test system of another data set is C. neoformans JEC-21. Nature of the data set: MIC80 broth microdilution. The format is cell-based, Candida neoformans. As to conditions: Cryptococcus neoformans, JEC21, 80% growth inhibition, RPMI-1640.
From the text: as §1, §2, §3

The test system of the next data set is C. neoformans H99. The data set is described as follows: MIC80 broth microdilution. Format: cell-based, Candida neoformans. As to conditions: Cryptococcus neoformans, 80% growth inhibition, RPMI-1640.
From the text: as §1, §2, §3

In a further data set the test system is C. lusitaniae. The data set is described as follows: MIC80 broth microdilution. As to conditions: Clavispora lusitaniae, 80% growth inhibition, RPMI-1640. The format is cell-based, Candida lusitaniae.
From the text: as §1, §2, §3

For a further data set, the system named is C. tropicalis. Nature of the data set: MIC80 broth microdilution. The format is cell-based. Particulars: Candida tropicalis, 80% growth inhibition, RPMI-1640.
From the text: as §1, §2, §3

Another data set concerns C. albicans (CaMDR). The data set is described as follows: MIC80 broth microdilution. Particulars: Candida albicans, read-out: Activity (MIC80). Format: cell-based.
From the text: as §1, §2, §3

For the next data set, the system named is C. albicans (SC5314). Nature of the data set: MIC80 broth microdilution. Format: cell-based. As to conditions: Candida albicans, 80% growth inhibition, RPMI-1640, read at 24 and 48 h.
From the text: as §1, §2, §3

The next data set relates to C. parapsilosis. The data set is described as follows: MIC80 broth microdilution. Format: cell-based, Candida parapsilosis. As to conditions: Lodderomyces parapsilosis, 80% growth inhibition, RPMI-1640.
From the text: as §1, §2, §3

A further data set deals with C. glabrata. Nature of the data set: MIC80 broth microdilution. The format is cell-based, Candida glabrata. Particulars: Nakaseomyces glabratus, 80% growth inhibition, RPMI-1640.
From the text: as §1, §2, §3

Another data set concerns A. fumigatus AF293. The data set is described as follows: MIC80 broth microdilution. Particulars: Aspergillus fumigatus, 80% growth inhibition, RPMI-1640. Format: cell-based.
From the text: as §1, §2, §3

The test system of a further data set is MDR A. fumigatus. Nature of the data set: MIC80 broth microdilution. As to conditions: Aspergillus fumigatus, 80% growth inhibition, RPMI-1640. Format: cell-based.
From the text: as §1, §2, §3

In the next data set the test system is A. fumigatus H11-20. The data set is described as follows: MIC80 broth microdilution. Format: cell-based. Particulars: Aspergillus fumigatus, H1120, 80% growth inhibition, RPMI-1640.
From the text: as §1, §2, §3

For the next data set, the system named is HepG2 liver cell. Nature of the data set: MTT toxicity assay. The format is cell-based, human. Particulars: MTT after 24 hours and 48 hours. As to the method: (§4) The MTT assay is a colorimetric assay that measures the reduction of yellow 3-(4,5-dimethythiazol-2-yl)-2,5-diphenyl tetrazolium bromide (MTT) by mitochondrial succinate dehydrogenase. The MIT enters the cells and passes into the mitochondria where it is reduced to an insoluble, dark purple, formazan product. The cells are then solubilized with an organic solvent (e.g., isopropanol) and the released, solubilized formazan reagent is measured spectrophotometrically. Since reduction of MTT can only occur in metabolically active cells, the level of activity is a measure of the viability of the cells.
(§5) Cells of the HepG2 liver cell, NIH/3T3 fibrolast cell, or 293T kidney cell were seeded in a 96 well plate. The plate was incubated overnight at 37° C. in a humidified incubator, 5% CO2. Compounds of formula (II), (III), (IV), (V), and (VI) were added to the plate. Different concentrations of drug were tested in triplicate along with a negative control. The final volume was adjusted to 100 μl per well. The plate was incubated overnight at 37° C. in a humidified incubator, 5% CO2. After 24 hours and 48 hours, MTT reagent (5 mg/ml, 10 μl/100 μl per well of the 96 well plate) was added and incubated at 37° C. for 3 hours. After 3 hours, 100 μl of the DMSO solution was added to each well and the plate was rocked at room temperature for 1 hour. The plate was then read on a plate reader at […]. The results are shown below in tables 1 and 2.

Another data set has as its system 293T kidney cell. Nature of the data set: MTT toxicity assay. Format: cell-based. As to conditions: MTT after 24 hours and 48 hours. On the procedure:
as §4, §5

The next data set deals with NIH/3T3 Fibroblast cell. Nature of the data set: MTT toxicity assay. Format: cell-based. As to conditions: MTT after 24 hours and 48 hours. On the procedure: as §4, §5
The subject of another data set is C. albicans (wild type). Nature of the data set: E-test of formula (II) and fluconazole. Format: cell-based, Candida albicans. As to conditions: fluconazole E test strips on YPD plate, 48 h at 30° C. As to the method:
E test strips (Biomerieux) containing a graded series of fluconazole concentration are placed on a YPD plate that had been previously inoculated to confluency with C. albicans. The strip plate that was inoculated, is incubated for 48 h at 30° C. The zone of inhibition at the lowest concentration of fluconazole is read as the MIC. The results, shown in FIG. 2, indicate synergy between the compound of formula (II) and fluconazole.

Values after ≈ are worked out from the molar mass of the structure shown. Where only a bound is given, the exact number is not on record here.

For `OC(Cn1cncn1)(Cn1cncn1)c1ccc(F)cc1F` [Fluconazole, reference compound], the MIC80 against C. krusei was 32 µg/mL (≈ 104 µM); in the data set with C. guilliermondii, 2 µg/mL (≈ 6.53 µM); in the data set on C. apicola, 0.25 µg/mL (≈ 0.816 µM); against C. neoformans JEC-21 it was 2 µg/mL (≈ 6.53 µM); with C. neoformans H99 it was 4 µg/mL (≈ 13.1 µM); against C. lusitaniae, 2 µg/mL (≈ 6.53 µM). Moreover, the MIC80 was 0.5 µg/mL (≈ 1.63 µM) with C. tropicalis; 32 µg/mL (≈ 104 µM) in the data set on C. albicans (CaMDR); 0.25 µg/mL (≈ 0.816 µM) in the data set with C. albicans (SC5314); 1 µg/mL (≈ 3.27 µM) against C. parapsilosis; 2 µg/mL (≈ 6.53 µM) against C. glabrata.

For `CCC(C)n1ncn(-c2ccc(N3CCN(c4ccc(OCC5COC(Cn6cncn6)(c6ccc(Cl)cc6Cl)O5)cc4)CC3)cc2)c1=O` (stereo not shown) [Itraconazole, reference compound], the figures for the MIC80 against A. fumigatus AF293, in the data set with MDR A. fumigatus and in the data set with A. fumigatus H11-20 were 0.5 µg/mL (≈ 0.709 µM), over 100 µg/mL and 0.5 µg/mL (≈ 0.709 µM), respectively.

Regarding `COc1cc2cc[n+]3c(C)c4cc5c(cc4cc3c2cc1OC)OCO5` [compound 156624], the MIC80 was 4 µg/mL against C. krusei; 4 µg/mL against C. guilliermondii; 4 µg/mL in the data set with C. apicola; 1 µg/mL in the data set with C. neoformans JEC-21; 8 µg/mL in the data set with C. neoformans H99; 1 µg/mL against C. lusitaniae. The MIC80 worked out at 4 µg/mL in the data set on A. fumigatus AF293; 4 µg/mL with C. tropicalis; 0.2 µg/mL with C. albicans (CaMDR); 4 µg/mL in the data set on MDR A. fumigatus; 4 µg/mL in the data set with A. fumigatus H11-20; 4 µg/mL in the data set with C. albicans (SC5314). In addition, the MIC80 was 8 µg/mL in the data set on C. parapsilosis and 1 µg/mL against C. glabrata. The results for the “toxicity (MTT)” value with HepG2 liver cell, in the data set on 293T kidney cell and in the data set on NIH/3T3 Fibroblast cell were 80 µg/mL, 80 µg/mL and over 100 µg/mL, respectively.

As for `Cc1c2cc3c(cc2cc2c4cc5c(cc4cc[n+]12)OCO5)OCO3` [compound 156627], the MIC80 in the data set on C. krusei is 0.5 µg/mL; in the data set on C. guilliermondii, 0.5 µg/mL; against C. apicola, 0.5 µg/mL; in the data set on C. neoformans JEC-21, under 0.2 µg/mL; against C. neoformans H99, 1 µg/mL; with C. lusitaniae it was under 0.2 µg/mL. The MIC80 against A. fumigatus AF293 is 0.5 µg/mL; against C. tropicalis, 0.5 µg/mL; with C. albicans (CaMDR), 0.05 µg/mL; against MDR A. fumigatus it was 0.5 µg/mL; with A. fumigatus H11-20, 0.5 µg/mL; against C. albicans (SC5314), 0.5 µg/mL. For the same molecule, the MIC80 was 1 µg/mL against C. parapsilosis and under 0.2 µg/mL in the data set on C. glabrata. Also, the “toxicity (MTT)” value with HepG2 liver cell turned out to be 25 µg/mL; in the data set with 293T kidney cell, 25 µg/mL; in the data set on NIH/3T3 Fibroblast cell it was 40 µg/mL. Further, the “interaction with fluconazole (E-test)” value in the data set with C. albicans (wild type) is “synergy”.

With `CCc1c2cc3c(cc2cc2c4cc5c(cc4cc[n+]12)OCO5)OCO3` [compound 157108], the MIC80 is 2 µg/mL with C. krusei; 2 µg/mL in the data set on C. guilliermondii; 1 µg/mL in the data set with C. apicola; 0.2 µg/mL against C. neoformans JEC-21; 2 µg/mL in the data set with C. neoformans H99; 0.2 µg/mL in the data set with C. lusitaniae. In addition, the MIC80 was found to be 1 µg/mL in the data set with A. fumigatus AF293; 2 µg/mL with C. tropicalis; 0.2 µg/mL with C. albicans (CaMDR); 1 µg/mL against MDR A. fumigatus; 1 µg/mL in the data set on A. fumigatus H11-20; 1 µg/mL against C. albicans (SC5314). The MIC80 amounted to 2 µg/mL with C. parapsilosis and 0.2 µg/mL in the data set on C. glabrata. The figures for the “toxicity (MTT)” value with HepG2 liver cell, in the data set with 293T kidney cell and in the data set with NIH/3T3 Fibroblast cell were 64 µg/mL, 70 µg/mL and 100 µg/mL, respectively.

Regarding `COc1cc2cc3c4cc5c(cc4cc[n+]3c(C)c2cc1OC)OCO5` [compound 160459], the MIC80 against C. krusei came to 4 µg/mL; against C. guilliermondii it was 4 µg/mL; in the data set on C. apicola it was 4 µg/mL; in the data set with C. neoformans JEC-21, 0.5 µg/mL; in the data set with C. neoformans H99, 8 µg/mL; with C. lusitaniae it was 1 µg/mL. Besides, the MIC80 turned out to be 4 µg/mL in the data set with A. fumigatus AF293; 4 µg/mL in the data set with C. tropicalis; 0.1 µg/mL in the data set on C. albicans (CaMDR); 4 µg/mL against MDR A. fumigatus; 4 µg/mL with A. fumigatus H11-20; 4 µg/mL against C. albicans (SC5314). The MIC80 stood at 8 µg/mL in the data set with C. parapsilosis and 0.5 µg/mL in the data set with C. glabrata. Moreover, the “toxicity (MTT)” value in the data set with HepG2 liver cell was determined as 50 µg/mL; with 293T kidney cell it was 60 µg/mL; with NIH/3T3 Fibroblast cell, 80 µg/mL.

With `COc1ccc2cc3c4cc5c(cc4cc[n+]3cc2c1OC)OCO5` [compound 403831], the MIC80 against C. krusei was 2 µg/mL; against C. guilliermondii it was 1 µg/mL; in the data set with C. apicola, 1 µg/mL; with C. neoformans JEC-21, 0.5 µg/mL; with C. neoformans H99, 0.5 µg/mL; against C. lusitaniae, 0.5 µg/mL. Moreover, the MIC80 in the data set with A. fumigatus AF293 turned out to be 1 µg/mL; with C. tropicalis, 1 µg/mL; with C. albicans (CaMDR), 0.1 µg/mL; against MDR A. fumigatus, 1 µg/mL; against A. fumigatus H11-20, 1 µg/mL; in the data set on C. albicans (SC5314) it was 1 µg/mL. Moreover, the MIC80 was 2 µg/mL in the data set with C. parapsilosis and 0.25 µg/mL in the data set with C. glabrata. Further, the “toxicity (MTT)” value with HepG2 liver cell stood at 80 µg/mL; in the data set with 293T kidney cell it was 80 µg/mL; with NIH/3T3 Fibroblast cell, 96 µg/mL.
